Measured values: US9994528B2, “Certain amino-pyridines and amino-triazines, compositions thereof, and methods for their use” (Cytokinetics, Inc., priority 2010, dated 2018)

Test system: rabbit skeletal myofibrils (approximately 90% fast fibers)
Test: Activation of fast skeletal myofibrils (PUMA coupled-enzyme ATPase assay)
Assay type: biochemical
Settings: AC1.4 = concentration at which the compound increased the enzymatic activity by 40%; myofibril suspension at calcium level pCa25; PM12 buffer pH 6.8
How it was run: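 Fast skeletal myofibrils from rabbit psoas muscle (roughly 90% fast fibers) were homogenized, washed with Triton X-100 to strip membranes, and frozen in 10% sucrose at −80° C. Their calcium-regulated ATPase activity was measured at pCa25 in PM12 buffer (12 mM Pipes, 2 mM MgCl2, 1 mM DTT, pH 6.8). A pyruvate kinase/lactate dehydrogenase system coupled ADP regeneration to NADH oxidation, read at 340 nm.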

Molecule	Mean AC1.4
CC(C)(Nc1ncc(-c2cccc(C(N)=O)c2)nn1)c1ncccc1Cl [3-(3-{[1-(3-chloro(2-pyridyl))-isopropyl]amino}-1,2,4-triazin-6-yl)benzamide]	B (B=1-10 uM)
COC(=O)c1ccc(-c2cnc(NC(C)(C)c3ncccc3F)nn2)c(F)c1 [methyl 3-fluoro-4-(3-{[1-(3-fluoro(2-pyridyl))-isopropyl]amino}(1,2,4-triazin-6-yl))benzoate]	D (D=>20 uM)
OCc1cnc(-c2cnc(NC[C@]3(c4ncccc4F)C[C@H](F)C3)nn2)s1 [{2-[3-({[3-fluoro-1-(3-fluoro(2-pyridyl))cyclobutyl]methyl}amino)-1,2,4-triazin-6-yl]-1,3-thiazol-5-yl}methan-1-ol]	B (B=1-10 uM)
Cc1ccc(F)c(C(C)(C)Nc2ncc(-c3cc(C(N)=O)ccc3F)nn2)n1 [4-fluoro-3-(3-{[1-(3-fluoro-6-methyl(2-pyridyl))-isopropyl]amino}(1,2,4-triazin-6-yl))benzamide]	B (B=1-10 uM)
CC(C)(Nc1ncc(-c2cc(CNC(=O)CN)ccc2F)nn1)c1ncccc1F [2-amino-N-{[4-fluoro-3-(3-{[1-(3-fluoro(2-pyridyl))-isopropyl]amino}(1,2,4-triazin-6-yl))phenyl]methyl}acetamide]	B (B=1-10 uM)
N#Cc1cc(-c2cnc(NCC3(c4ncccc4F)CCC3)nn2)ccc1F [2-fluoro-5-[3-({[(3-fluoro(2-pyridyl))cyclobutyl]methyl}amino)(1,2,4-triazin-6-yl)]benzenecarbonitrile]	C (C=10-20 uM)
CC(C)(Nc1ncc(-c2cccc(CC(N)=O)c2)nn1)c1ncccc1F [2-[3-(3-{[1-(3-fluoro(2-pyridyl))-isopropyl]amino}-1,2,4-triazin-6-yl)phenyl]acetamide]	D (D=>20 uM)
CC(C)(CNc1ncc(-n2cc(C(N)=O)cn2)nn1)c1ccc(F)cc1 [1-(3-{[2-(4-fluorophenyl)-2-methylpropyl]amino}-1,2,4-triazin-6-yl)pyrazole-4-carboxamide]	B (B=1-10 uM)
Cc1nc(C(C)(C)Nc2ncc(-c3cc(C(N)=O)ccc3F)nn2)ccc1F [4-fluoro-3-(3-{[1-(5-fluoro-6-methyl(2-pyridyl))-isopropyl]amino}(1,2,4-triazin-6-yl))benzamide]	B (B=1-10 uM)
CC(C)(Nc1ncc(-c2cc(C(N)=O)ccc2F)nn1)c1cccc(OC(F)F)n1 [3-[3-({1-[6-(difluoromethoxy)(2-pyridyl)]-isopropyl}amino)(1,2,4-triazin-6-yl)]-4-fluorobenzamide]	A (A=<1 uM)
COC(=O)c1ccc(F)c(-c2cnc(NC(C)(C)c3cccc(S(C)(=O)=O)c3)nn2)c1 [methyl 4-fluoro-3-[3-({1-methyl-1-[3-(methylsulfonyl)phenyl]ethyl}amino)(1,2,4-triazin-6-yl)]benzoate]	D (D=>20 uM)
NC(=O)c1cnn(-c2cnc(NCC3(c4ncccc4F)CCC3)nn2)c1 [1-[3-({[(3-fluoro-2-pyridyl)cyclobutyl]methyl}amino)-1,2,4-triazin-6-yl]pyrazole-4-carboxamide]	B (B=1-10 uM)
NC(=O)c1ccc(F)c(-c2cnc(NC[C@]3(c4ncccc4F)C[C@H](F)C3)nn2)c1 [4-fluoro-3-[3-({[3-fluoro-1-(3-fluoro(2-pyridyl))cyclobutyl]methyl}amino)(1,2,4-triazin-6-yl)]benzamide]	A (A=<1 uM)
CC(C)(C)Nc1ncc(-c2cc(C(N)=O)ccc2F)nn1 [3-{3-[(tert-butyl)amino](1,2(4-triazin-6-yl)}-4-fluorobenzamide]	D (D=>20 uM)
COC(=O)c1ccc(F)c(-c2cnc(NCC3(c4ccccn4)CCC3)nn2)c1 [methyl 4-fluoro-3-(3-{[(2-pyridylcyclobutyl)methyl]amino}(1,2,4-triazin-6-yl))benzoate]	C (C=10-20 uM)
CC(C)(CNc1ccc(C(O)CO)cn1)c1ccc(F)cc1 (stereo not drawn) [1-(6-{[2-(4-fluorophenyl)-2-methylpropyl]amino}-3-pyridyl)ethane-1,2-diol]	D (D=>20 uM)
NC(=O)c1cccc(-c2ccc(NC(=O)Cc3ccc(F)cc3)nc2)c1 [3-{6-[2-(4-fluorophenyl)acetylamino]-3-pyridyl}benzamide]	D (D=>20 uM)

Molecule	Mean AC1.4
CC(C)(Nc1ncc(-c2ccc3[nH][nH]c(=O)c3c2)nn1)c1ncccc1F [5-(3-{[1-(3-fluoro(2-pyridyl))-isopropyl]amino}-1,2,4-triazin-6-yl)-1H-2-hydroindazol-3-one]	B (B=1-10 uM)
NC(=O)c1ccc(F)c(-c2cnc(NCC3(c4ccccn4)CCC3)nn2)c1 [4-fluoro-3-(3-{[(2-pyridylcyclobutyl)methyl]amino}(1,2,4-triazin-6-yl))benzamide]	B (B=1-10 uM)
CC(C)(CNc1ccc(CCNS(C)(=O)=O)cn1)c1ccc(F)cc1 [[2-(6-{[2-(4-fluorophenyl)-2-methylpropyl]amino}(3-pyridyl))ethyl](methylsulfonyl)amine]	D (D=>20 uM)
NC(=O)c1cccc(-c2ccc(NCCc3ccc(F)cc3)nc2)c1 [3-(6-{[2-(4-fluorophenyl)ethyl]amino}-3-pyridyl)benzamide]	D (D=>20 uM)
CC(C)(CNc1ncc(-c2ccc3[nH]nc(N)c3c2)nn1)c1ccc(F)cc1 [[6-(3-amino(1H-indazol-5-yl))(1,2,4-triazin-3-yl)][2-(4-fluorophenyl)-2-methylpropyl]amine]	A (A=<1 uM)
CC(C)(Nc1ncc(-c2cc(C#N)ccc2F)nn1)c1ncccc1C(F)F [3-[3-({1-[3-(difluoromethyl)(2-pyridyl)]-isopropyl}amino)(1,2,4-triazin-6-yl)]-4-fluorobenzenecarbonitrile]	D (D=>20 uM)
CC(C)(Nc1ncc(-c2cc(NS(C)(=O)=O)ccc2F)nn1)c1ncccc1F [[4-fluoro-3-(3-{[1-(3-fluoro(2-pyridyl))-isopropyl]amino}(1,2,4-triazin-6-yl))phenyl](methylsulfonyl)amine]	C (C=10-20 uM)
CC(C)(CNc1cccc(-c2ccc(F)cc2)n1)c1ccc(F)cc1 [[6-(4-fluorophenyl)(2-pyridyl)][2-(4-fluorophenyl)-2-methylpropyl]amine]	D (D=>20 uM)
NCc1cnc(-c2cnc(NC[C@]3(c4ncccc4F)C[C@H](F)C3)nn2)s1 [{6-[5-(aminomethyl)(1,3-thiazol-2-yl)](1,2,4-triazin-3-yl)}{[3-fluoro-1-(3-fluoro(2-pyridyl))cyclobutyl]methyl}amine]	B (B=1-10 uM)
CC(Nc1ncc(-c2cc(C(N)=O)ccc2F)nn1)c1ncccc1F (stereo not drawn) [4-fluoro-3-(3-{[(3-fluoro(2-pyridyl))ethyl]amino}(1,2,4-triazin-6-yl))benzamide]	C (C=10-20 uM)
CC(C)(Nc1ncc(-c2ncc(CO)s2)nn1)c1ncccc1Cl [[2-(3-{[1-(3-chloro(2-pyridyl))-isopropyl]amino}-1,2,4-triazin-6-yl)-1,3-thiazol-5-yl]methan-1-ol]	D (D=>20 uM)
2-{2-[3-({[3-fluoro-1-(3-fluoro(2- pyridyl))cyclobutyl]methyl}amino)-1,2,4- triazin-6-yl]-1,3-thiazoI-5-yl}acetamide	C (C=10-20 uM)
CNC(=O)c1ccc(F)c(-c2cnc(NC[C@]3(c4ncccc4Cl)C[C@H](F)C3)nn2)c1 [{3-[3-({[1-(3-chloro(2-pyridyl))-3-fluorocyclobutyl]methyl}amino)(1,2,4-triazin-6-yl)]-4-fluorophenyl}-N-methylcarboxamide]	A (A=<1 uM)
CC(C)(CNc1ncc(-c2ccc3[nH]ncc3c2)nn1)c1ncccc1F [(6-(1H-indazol-5-yl)(1,2,4-triazin-3-yl))[2-(3-fluoro(2-pyridyl))-2-methylpropyl]amine]	C (C=10-20 uM)
CC(C)(Nc1ncc(-c2ccc(F)c(C(=O)O)c2)nn1)c1ncccc1F [2-fluoro-5-(3-{[1-(3-fluoro(2-pyridyl))-isopropyl]amino}(1,2,4-triazin-6-yl))benzoic acid]	D (D=>20 uM)
NC(=O)c1ccc(F)c(-c2cnc(NC[C@]3(c4ncccc4Cl)C[C@H](F)C3)nn2)c1 [3-[3-({[1-(3-chloro(2-pyridyl))-3-fluorocyclobutyl]methyl}amino)(1,2,4-triazin-6-yl)]-4-fluorobenzamide]	A (A=<1 uM)
